Data published in PubChem BioAssay AID2060495 (Molecular Pharmacology Branch, DTP, NCI, 2025).

Test system: 521955-158-R2-J5-PDC complex spheroid viability
Assay: Anticancer human tumor 521955-158-R2-J5-PDC patient-derived pancreatic carcinoma cell line growth inhibition [GQUAD]
Conditions: for IC50: curve of first compound; for viability, T/C: stronger effect = lower value
In short: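 Viability of tumor cells grown as complex spheroids with endothelial and stromal cells, exposed to drug combinations. Top concentration at or near clinical Cmax (else 10 microM), diluted in half-log increments.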

[1] = second compound 0.0316 µM, first compound 0.0316 µM
[2] = second compound 0.0316 µM, first compound 0.1 µM
[3] = second compound 0.0316 µM, first compound 0.316 µM
[4] = second compound 0.0316 µM, first compound 1 µM
[5] = second compound 0.0316 µM, first compound 3.16 µM
[6] = second compound 0.0316 µM, first compound 10 µM
[7] = second compound 0.1 µM, first compound 0.0316 µM
[8] = second compound 0.1 µM, first compound 0.1 µM
[9] = second compound 0.1 µM, first compound 0.316 µM
[10] = second compound 0.1 µM, first compound 1 µM
[11] = second compound 0.1 µM, first compound 3.16 µM
[12] = second compound 0.1 µM, first compound 10 µM
[13] = second compound 0.316 µM, first compound 0.0316 µM
[14] = second compound 0.316 µM, first compound 0.1 µM
[15] = second compound 0.316 µM, first compound 0.316 µM
[16] = second compound 0.316 µM, first compound 1 µM
[17] = second compound 0.316 µM, first compound 3.16 µM
[18] = second compound 0.316 µM, first compound 10 µM
[19] = second compound 1 µM, first compound 0.0316 µM
[20] = second compound 1 µM, first compound 0.1 µM
[21] = second compound 1 µM, first compound 0.316 µM
[22] = second compound 1 µM, first compound 1 µM
[23] = second compound 1 µM, first compound 3.16 µM
[24] = second compound 1 µM, first compound 10 µM
[25] = second compound 3.16 µM, first compound 0.0316 µM
[26] = second compound 3.16 µM, first compound 0.1 µM
[27] = second compound 3.16 µM, first compound 0.316 µM
[28] = second compound 3.16 µM, first compound 1 µM
[29] = second compound 3.16 µM, first compound 3.16 µM
[30] = second compound 3.16 µM, first compound 10 µM
[31] = second compound 10 µM, first compound 0.0316 µM
[32] = second compound 10 µM, first compound 0.1 µM
[33] = second compound 10 µM, first compound 0.316 µM
[34] = second compound 10 µM, first compound 1 µM
[35] = second compound 10 µM, first compound 3.16 µM
[36] = second compound 10 µM, first compound 10 µM
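Further: spheroids exposed to agents for one week before reading.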
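Wherever viability, T/C is given: 100% = DMSO vehicle control viability.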

CCCS(=O)(=O)Nc1ccc(F)c(C(=O)c2c[nH]c3ncc(-c4ccc(Cl)cc4)cc23)c1F + Cc1cnc(CNC(=O)c2c(=O)c3ccc(N4CCCN(C)CC4)nc3n3c2sc2ccccc23)cn1
IC50 (second compound 0.0316 µM): 9260 nM | IC50 (second compound 0.1 µM): > 10000 nM | IC50 (second compound 0.316 µM): < 31.6 nM | IC50 (second compound 1 µM): < 31.6 nM | IC50 (second compound 3.16 µM): < 31.6 nM | IC50 (second compound 10 µM): < 31.6 nM | viability, T/C [1]: 79.5% | viability, T/C [2]: 63.5% | viability, T/C [3]: 113% | viability, T/C [4]: 113% | viability, T/C [5]: 109% | viability, T/C [6]: 46.8% | viability, T/C [7]: 52.4% | viability, T/C [8]: 69.6% | viability, T/C [9]: 59.4% | viability, T/C [10]: 64% | viability, T/C [11]: 61.8% | viability, T/C [12]: 39% | viability, T/C [13]: 32% | viability, T/C [14]: 37.3% | viability, T/C [15]: 27.1% | viability, T/C [16]: 32.6% | viability, T/C [17]: 35.7% | viability, T/C [18]: 26.4% | viability, T/C [19]: 17.8% | viability, T/C [20]: 18.2% | viability, T/C [21]: 17.9% | viability, T/C [22]: 18.9% | viability, T/C [23]: 24.2% | viability, T/C [24]: 16.8% | viability, T/C [25]: 12.7% | viability, T/C [26]: 14.3% | viability, T/C [27]: 16.8% | viability, T/C [28]: 16.1% | viability, T/C [29]: 20.7% | viability, T/C [30]: 0.32% | viability, T/C [31]: 9.58% | viability, T/C [32]: 16.2% | viability, T/C [33]: 16.9% | viability, T/C [34]: 18.7% | viability, T/C [35]: 21.4% | viability, T/C [36]: 0.33%

CC1COCCN1c1cc(C2(S(C)(=N)=O)CC2)nc(-c2ccnc3[nH]ccc23)n1 (centres undefined) + Cc1cnc(CNC(=O)c2c(=O)c3ccc(N4CCCN(C)CC4)nc3n3c2sc2ccccc23)cn1
IC50 (second compound 0.0316 µM): 614 nM | IC50 (second compound 0.1 µM): 543 nM | IC50 (second compound 0.316 µM): < 31.6 nM | IC50 (second compound 1 µM): < 31.6 nM | IC50 (second compound 3.16 µM): < 31.6 nM | IC50 (second compound 10 µM): < 31.6 nM | viability, T/C [1]: 80.3% | viability, T/C [2]: 86.1% | viability, T/C [3]: 82.4% | viability, T/C [4]: 26.1% | viability, T/C [5]: 9.1% | viability, T/C [6]: 10.6% | viability, T/C [7]: 59.4% | viability, T/C [8]: 60.2% | viability, T/C [9]: 76.2% | viability, T/C [10]: 32.7% | viability, T/C [11]: 12.3% | viability, T/C [12]: 10.4% | viability, T/C [13]: 42.2% | viability, T/C [14]: 46.2% | viability, T/C [15]: 53.2% | viability, T/C [16]: 32.8% | viability, T/C [17]: 13.7% | viability, T/C [18]: 11.3% | viability, T/C [19]: 31% | viability, T/C [20]: 24.5% | viability, T/C [21]: 23.4% | viability, T/C [22]: 23.7% | viability, T/C [23]: 15.4% | viability, T/C [24]: 11.1% | viability, T/C [25]: 21.3% | viability, T/C [26]: 23.6% | viability, T/C [27]: 21.5% | viability, T/C [28]: 19.3% | viability, T/C [29]: 13.6% | viability, T/C [30]: 9.15% | viability, T/C [31]: 16.2% | viability, T/C [32]: 19.1% | viability, T/C [33]: 20.9% | viability, T/C [34]: 22.8% | viability, T/C [35]: 14.3% | viability, T/C [36]: 7.66%
